Experimental data: PMC9455983 (International Journal of Molecular Sciences, 2022)
Like-named read-outs stand apart in the source and are kept apart here.

Experiments:
mu-opioid receptor (MOR) = molecular target: T1, mu-opioid receptor (MOR) (Rattus norvegicus, UniProt P33535); assay: MOR radioligand competition binding assay ([3H]-DAMGO); settings: Mu screening results
T1 construct: Rat cortices were homogenized using 50 mM Tris, pH 7.4, and centrifuged at 16,500 rpm for 10 min; from tissue; host or cells: rat cortex membranes
Procedure, shortened: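 Competition for 2 nM [3H]-DAMGO binding was measured in rat cortex membrane suspension (50 mM Tris, pH 7.4, plus 2 mg/mL bovine serum). After filtration through GF/B filters pre-soaked in BSA, filter radioactivity was counted. Data are two duplicate experiments reported as mean ± SD.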

[1] = molecular target: T2, kappa-opioid receptor (KOR) (Cavia porcellus, UniProt P41144); assay: KOR radioligand competition binding assay ([3H]U69,593); design: species or system guinea pig; settings: Kappa screening results
T2 construct: Guinea pig cortices and cerebella were homogenized using 50 mM Tris, pH 7.4; from tissue; host or cells: guinea pig cortex and cerebellum membranes
Procedure, shortened: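 Guinea pig cortex and cerebellum homogenates in 50 mM Tris pH 7.4 with 10 mM MgCl2, 2 nM [3H]U69,593, 2 h at 25 °C. Unlabeled U50,488 gave the standard curve and nonspecific binding. Filtration on BSA-soaked GF/B filters, scintillation counting; two replicates, repeated twice, mean ± SD.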

C57BL/6J mice [2] = assay: 55 °C warm-water tail-withdrawal assay (antinociception); type: in vivo, mouse; settings: for ED50 (and 95% Confidence Interval (C.I.)) Values, i.c.v. (nmol): antinociception at peak response, mice, * ED50 estimated where maximum antinociception not achieved; for duration of significant antinociception: maximum doses tested
Procedure: For intracerebroventricular (i.c.v.) administration, the 1968-series compounds were dissolved in dimethyl sulfoxide (DMSO), followed by the addition of sterile saline (0.9%) so that the final vehicle was 50% DMSO and 50% saline, and the i.c.v. injections were performed as described previously. For per os (p.o.) administration, 1968-4 and 1968-22 were administered in 10% Ethanol/10%Tween-80/80% 0.9% saline. All solutions for animal administration were prepared fresh daily.
Antinociception was calculated according to the following formula: % antinociception = 100 × (test latency − control latency)/(15 − control latency). Tail-withdrawal data points are the means of 8–16 mice, unless otherwise indicated, with SEM shown by error bars.
All dose–response lines were analyzed by regression, and ED50 (effective dose producing 50% antinociception) values and 95% confidence intervals (C.I.) were determined using individual data points from graded dose–response curves with Prism 8.0 software (GraphPad, La Jolla, CA, USA). Percent antinociception was used to determine within group effects and to allow comparison to baseline latency in tail-withdrawal experiments. The statistical significance of differences between ED50 values was determined by evaluation of the ED50 value shift via nonlinear regression modeling with Prism software. Significant differences in behavioral data were analyzed by ANOVA (one-way or two-way with repeated measures (RM), as appropriate). Significant results were further analyzed with Sidak’s, Tukey’s, or Dunnett’s multiple comparison post hoc tests, as appropriate. Data for conditioned place preference experiments were analyzed by two-way RM ANOVA, with analyses examining the main effect of the conditioned place preference phase (e.g., pre- or post-conditioning) and the interaction of drug pretreatment. Significant effects were further analyzed using Sidak’s HSD post hoc testing. All data are presented as mean ± SEM, with significance set at p < 0.05.

[3] = molecular target: T3, delta-opioid receptor (DOR) (Rattus norvegicus, UniProt P33533); assay: DOR radioligand competition binding assay ([3H]-DPDPE); settings: Delta screening results
T3 construct: Rat cortices were homogenized using 50 mM Tris, pH 7.4, 10 mM MgCl2-6H2O, 200 µM PMSF; from tissue; host or cells: rat cortex membranes
Procedure, shortened: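 Radioligand was 2 nM [3H]-DPDPE, incubated 2.5 h at 25 °C with homogenized rat cortex (50 mM Tris pH 7.4, 10 mM MgCl2, 200 µM PMSF). Bound ligand separated on GF/B filters and counted; nonspecific binding from unlabeled DPDPE. Values are mean ± SD, two experiments, two replicates each.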

C57BL/6J mice [4] = assay: Opioid receptor involvement in antinociception (antagonist pretreatment, tail-withdrawal assay); type: in vivo, mouse
Procedure: Pretreatment of mice with the opioid antagonist naloxone (10 mg/kg, s.c., −15 min) was used to assess receptor contribution to the observed antinociception induced by maximal tested doses of each 1968-series compound tested.
The opioid receptor involvement in the agonist activity of the heterocyclic peptidomimetics was determined by pretreating mice with a single dose of β-funaltrexamine (β-FNA, 10 mg/kg, i.p.) or nor-BNI (10 mg/kg, i.p.) 24 h in advance of administration of a dose of 1968-series compound.

C57BL/6J mice [5] = assay: Acute antinociceptive tolerance determination
C57BL/6J mice [6] = assay: Conditioned place preference / aversion; type: in vivo, mouse; settings: 10 mg/kg, i.p.; two days of place conditioning
C57BL/6J mice [7] = assay: Ambulation (locomotor activity) in CLAMS/Oxymax system; type: in vivo, mouse; settings: 100 nmol, i.c.v.
Procedure: (§1) Respiration rates (in breaths per minute) and animal locomotive activity (as ambulations) were assessed using the Oxymax/CLAMS system (Columbus Instruments, Columbus, OH), as described previously. Mice were habituated to their individual sealed housing chambers for 60 min before testing. Mice were administered 1968-22 (0.3–100 nmol, i.c.v.), morphine (100 nmol, i.c.v.), or vehicle, as indicated, and five min later confined to the CLAMS testing chambers. Pressure monitoring within the sealed chambers measured frequency of respiration. Infrared beams located in the floor measured locomotion as number of beam breaks. Respiration and locomotive data were averaged over 20 min periods for 120 min post-injection of the test compound. Data are presented as % vehicle response ± SEM, ambulation or breaths per minute.

C57BL/6J mice [8] = assay: Respiration rate in CLAMS/Oxymax system; type: in vivo, mouse; settings: 100 nmol, i.c.v.
Procedure: as §1

κ opioid receptor = molecular target: κ opioid receptor; design: method as in PMID 25996309; settings: cited from earlier work
δ opioid receptor = molecular target: δ opioid receptor; design: method as in PMID 25996309; settings: cited from earlier work
[9] = experiment 1, unit inferred, read-out: Ki (Exp 1)
[10] = experiment 2, unit inferred, read-out: Ki (Exp 2)
[11] = mean of Exp 1 and Exp 2, unit inferred, read-out: MEAN (Ki)
[12] = mean of two experiments, read-out: Ki
[13] = first Ki column, unit not printed (apparently M), read-out: Ki (first column)
[14] = mean of both Ki, unit inferred, read-out: MEAN (Ki)
[15] = second Ki column, unit not printed (apparently M), read-out: Ki (second column)

SMILES | Ki (mu-opioid receptor (MOR); [9]) [nM] | Ki (mu-opioid receptor (MOR); [10]) [nM] | Ki (mu-opioid receptor (MOR); [11]) [nM] | Ki (mu-opioid receptor (MOR); [12]) [nM] | Ki [1, 9] [nM] | Ki [1, 10] [nM] | Ki [1, 11] [nM] | Ki [1, 12] [nM] | time of peak antinociception after i.c.v. administration (C57BL/6J mice [2]; i.c.v.) [min] | ED50 (and 95% Confidence Interval (C.I.)) Values, i.c.v. (nmol) (C57BL/6J mice [2]; i.c.v.) | duration of significant antinociception (C57BL/6J mice [2]; i.c.v.) [min] | Ki [3, 13] [nM] | Ki [3, 14] [nM] | Ki [3, 12] [nM] | Ki [3, 15] [nM] | also measured
Cc1cc(O)cc(C)c1C[C@H]1CN([C@@H](Cc2ccc(O)cc2)CN2C(=N)NC[C@@H]2Cc2ccccc2)C(=N)N1 [1968-4] | 16.9 | 9.51 | 13.2 | 13 | 311 | 178 | 245 | 245 | 30 | 20.8 (5.52–127.1) nmol | 60 | 729 | 874 | 874 | 1020 | antinociception at the highest dose tested (C57BL/6J mice [2]; 30 nmol, i.c.v.): approximately 60%; antinociception after oral administration (in words) (C57BL/6J mice [2]; 10 mg/kg, p.o.): significant antinociception; duration of significant antinociception after oral administration (C57BL/6J mice [2]; 10 mg/kg, p.o.): brief
Cc1cc(O)cc(C)c1C[C@@H](CN1C(=N)NC[C@@H]1C)N1C[C@H](Cc2ccc(O)cc2)NC1=N [1968-16] | 7.52 | 9.24 | 8.38 | 8 | 246 | 293 | 270 | 270 | – | 2.00 (0.5–7.45) nmol | 70 | 616 | 697 | 697 | 777 | effect of naloxone pretreatment on antinociception (C57BL/6J mice [4]; naloxone 10 mg/kg, s.c., −15 min, maximal tested i.c.v. dose of compound): most susceptible to antagonism by naloxone; effect of naltrindole (DOR antagonist) pretreatment on antinociception (C57BL/6J mice [4]; naltrindole 20 mg/kg, i.p., −20 min, 1968-16 30 nmol or 1968-22 0.3 nmol, i.c.v.): significantly antagonized; effect of nor-BNI (KOR antagonist) pretreatment on antinociception (C57BL/6J mice [4]; nor-BNI 10 mg/kg, i.p., −24 h, 1968-16 30 nmol or 1968-22 0.3 nmol, i.c.v.): significantly antagonized; effect of β-FNA (MOR antagonist) pretreatment on antinociception (C57BL/6J mice [4]; β-FNA 10 mg/kg, i.p., −24 h, 1968-16 30 nmol or 1968-22 0.3 nmol, i.c.v.): significantly antagonized
CN1CC[C@]23c4c5ccc(O)c4O[C@H]2[C@@H](O)C=C[C@H]3[C@H]1C5 [Morphine, morphine, reference compound] | – | – | – | – | – | – | – | – | 30 | 3.09 (2.76–3.50) nmol | – | – | – | – | – | fold rightward shift in dose-response curve of the second dose (acute tolerance) (C57BL/6J mice [5]; ED50 dose i.c.v. at 0 h, graded doses at 8 h): 7.71 fold; ED50 (95% C.I.) of second dose at 8 h (C57BL/6J mice [5]; i.c.v., after ED50 pretreatment at 0 h): 23.8 (17.0–31.6) nmol; place conditioning result (C57BL/6J mice [6]): significant place preference; effect on ambulation vs vehicle (C57BL/6J mice [7]): elevated ambulations; effect on respiration rate vs vehicle (C57BL/6J mice [8]): significant, time-dependent respiratory depression
CC(C)C[C@H]1CN2C(=CC3=NC[C@H](C(C)C)N3C[C@@H]2Cc2ccc(O)cc2)N1CCc1ccccc1 [Diimidazodiazepine 14] | – | – | – | – | – | – | – | – | – | – | – | – | – | – | – | Ki (κ opioid receptor): 23 ± 12 nM; Ki (δ opioid receptor): 32 ± 6 nM
